Laboratory results published in patent US20250206729A1, “DUAL RAF AND TUBULIN INHIBITORS AND METHODS OF USE THEREOF” (Deciphera Pharmaceuticals, LLC, priority 2023, published 2025).
Like-named read-outs stand apart in the source and are kept apart here.

Key:
[1] = system: MiaPaca-2 cells; assay: MiaPaca-2 cell proliferation assay; assay type: cell-based; details: Homo sapiens, MIA PaCa-2
Method: Miapaca-2 cells (catalog #CRL-1420) are obtained from the American Type Culture Collect (ATTC, Manassas, VA). Briefly, cells were grown in DMEM supplemented with 10% characterized fetal bovine serum (Invitrogen, Carlsbad, CA), 2.5% New Zealand sourced horse serum and 1% Penicillin/Streptomycin/L-Glutamine at 37° C., 5% CO2, and 95% humidity. Cells are expanded until reaching 70-95% confluency at which point they are sub-cultured or harvested for assay use. A serial dilution of test compound is dispensed into a 384-well black clear bottom plate in triplicate. Seven hundred fifty cells are added per well in 50 μL complete growth medium in the 384-well plate. Plates are incubated for 67-72 h at 37° C., 5% CO2, and 95% humidity. At the end of the incubation, 10 μL of a 440 μM solution of resazurin (Sigma, St. Louis, MO) in PBS is added to each well of the plate and plates are incubated for an additional 5-6 h at 37° C., 5% CO2, and 95% humidity. Plates are read on a Synergy2 or equivalent reader (Biotek, Winooski VT) using an excitation of 540 nm and an emission of 600 nm. Data is analyzed using Prism software (GraphPad, San Diego, CA) to calculate IC50 values.

[2] = target: T1, B-Raf kinase (SEQ ID NO: 1) (Homo sapiens, UniProt P15056); assay: Biochemical assay for B-Raf (coupled pyruvate kinase/lactate dehydrogenase); details: 1 mM ATP; read-out: BRAF (inhibition of biochemical activity, IC50)
T1 construct: GST (N); purchased Sigma

[3] = system: HPAF-II cells; assay: HPAF-II cell proliferation assay; assay type: cell-based; details: Homo sapiens
Method: (§1) HPAF-II cells (catalog #CRL-1997) are obtained from the American Type Culture Collect (ATCC, Manassas, VA). Briefly, cells are grown in Minimum Essential Media supplemented with 10% characterized fetal bovine serum (Invitrogen, Carlsbad, CA) and 1% Penicillin/Streptomycin/L-Glutamine at 37° C., 5% CO2, and 95% humidity. Cells are expanded until reaching 70-95% confluency at which point they are sub-cultured or harvested for assay use. A serial dilution of test compound is dispensed into a 384-well black clear bottom plate in triplicate. 750 cells are added per well in 50 μL complete growth medium in the 384-well plate. Plates are incubated for 115 to 120 h at 37° C., 5% CO2, and 95% humidity. At the end of the incubation, 40 μL of a […] solution of resazurin (Sigma, St. Louis, MO) in PBS is added to each well of the plate and plates are incubated for an additional 18 to 24 h at 37° C., 5% CO2, and 95% humidity. Plates are read on a Synergy2 or equivalent reader (Biotek, Winooski, VT) using an excitation of 540 nm and an emission of 600 nm. Data is analyzed using Prism software (Graphpad, San Diego, CA) to calculate IC50 values.

[4] = target: T2, C-Raf kinase (SEQ ID NO: 2) (Homo sapiens, UniProt P04049, Y340D/Y341D); assay: Biochemical assay for C-Raf (coupled pyruvate kinase/lactate dehydrogenase); details: 1 mM ATP; read-out: CRAF (inhibition of biochemical activity, IC50)
T2 construct: C-Raf residues 306-end; Y340D, Y341D with N-; GST (N); purchased Sigma

[5] = system: HCT-116 cells; assay: HCT-116 cell proliferation assay; assay type: cell-based; details: Homo sapiens
Method: HCT-116 cells (catalog #CCL-247) are obtained from the American Type Culture Collect (ATCC, Manassas, VA). Briefly, cells are grown in McCoy's 5A supplemented with 10% characterized fetal bovine serum (Invitrogen, Carlsbad, CA) and 1% Penicillin/Streptomycin/L-Glutamine at 37° C., 5% CO2, and 95% humidity. Cells are expanded until reaching 70-95% confluency at which point they are sub-cultured or harvested for assay use. A serial dilution of test compound is dispensed into a 384-well black clear bottom plate in triplicate. 375 cells are added per well in 50 μL complete growth medium in the 384-well plate. Plates are incubated for 67 to 72 h at 37° C., 5% CO2, and 95% humidity. At the end of the incubation, 40 μL of a […] solution of resazurin (Sigma, St. Louis, MO) in PBS is added to each well of the plate and plates are incubated for an additional 4 to 5 h at 37° C., 5% CO2, and 95% humidity. Plates are read on a Synergy2 or equivalent reader (Biotek, Winooski, VT) using an excitation of 540 nm and an emission of 600 nm. Data is analyzed using Prism software (Graphpad, San Diego, CA) to calculate IC50 values.

[6] = system: Pa16c cells; assay: Pa16c cell proliferation assay; assay type: cell-based; details: 67 to 72 h incubation, resazurin; read-out: Pa16c (inhibition of cell proliferation, IC50)
Method: as §1, with “Pa16c” for “HPAF-II”, “cells” for “cells (catalog #CRL-1997)”, “Dr. Channing Der, University of North Carolina at Chapel Hill.” for “the American Type Culture Collect (ATCC, Manassas, VA).”, “Dulbecco's Modified Eagle Medium” for “Minimum Essential Media”, “67” for “115”, “72” for “120”

[7] = 67-72 h incubation, resazurin, read-out: MiaPaca-2 (inhibition of cell proliferation, IC50)
[8] = HPAF-II, 115 to 120 h incubation, resazurin, read-out: HPAF-II (inhibition of cell proliferation, IC50)
[9] = HCT-116, 67 to 72 h incubation, resazurin, read-out: HCT-116 (inhibition of cell proliferation, IC50)
[10] = Table 4, mutant KRAS pancreatic cancer cell line, anti-proliferative, read-out: MiaPaca-2
[11] = Table 4, mutant KRAS colorectal cancer cell line, anti-proliferative, read-out: HCT-116

T2 sequence (P04049 307-648 Y340D/Y341D): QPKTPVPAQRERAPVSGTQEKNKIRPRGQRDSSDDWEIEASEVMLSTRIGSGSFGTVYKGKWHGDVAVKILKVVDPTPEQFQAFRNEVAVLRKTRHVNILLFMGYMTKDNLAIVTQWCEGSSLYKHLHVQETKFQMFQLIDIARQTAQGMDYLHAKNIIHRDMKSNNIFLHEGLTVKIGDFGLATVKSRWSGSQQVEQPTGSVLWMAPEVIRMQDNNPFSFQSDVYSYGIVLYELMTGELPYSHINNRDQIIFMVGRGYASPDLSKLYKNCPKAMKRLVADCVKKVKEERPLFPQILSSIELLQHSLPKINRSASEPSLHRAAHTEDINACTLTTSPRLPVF
T1 sequence (P15056 416-766): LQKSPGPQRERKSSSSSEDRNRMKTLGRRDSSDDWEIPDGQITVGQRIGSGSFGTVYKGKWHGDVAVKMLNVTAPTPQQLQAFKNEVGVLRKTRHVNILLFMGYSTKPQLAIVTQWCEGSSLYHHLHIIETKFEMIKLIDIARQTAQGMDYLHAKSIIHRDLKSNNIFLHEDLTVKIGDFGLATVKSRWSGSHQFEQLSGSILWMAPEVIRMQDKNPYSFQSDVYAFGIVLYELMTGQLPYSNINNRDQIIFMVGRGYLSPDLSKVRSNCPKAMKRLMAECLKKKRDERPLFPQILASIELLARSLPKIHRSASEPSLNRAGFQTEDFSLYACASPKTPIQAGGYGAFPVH

SMILES	IC50 [1, 7] [µM]	IC50 [2] [µM]	IC50 [4] [µM]	IC50 [5, 9] [µM]	IC50 [3, 8] [µM]	IC50 [6] [µM]	IC50 [1, 10] [µM]	IC50 [5, 11] [µM]	IC50 ([3]; Table 4, mutant KRAS pancreatic cancer cell line, anti-proliferative, read-out: HPAF-II) [µM]
Cc1ccc(NC(=O)c2ccc(C(F)(F)F)nn2)cc1-c1cc(N[C@H](C)CO)nc(N2CCOCC2)c1 [Example 5]	0.1 to 0.5	1 to 10	0.5 to 1	1 to 10	1 to 10	1 to 10	–	–	–
Cc1ccc(NC(=O)c2cc(C(F)(F)F)cnn2)cc1-c1cc(N2CCOCC2)cnn1 [Example 22]	1 to 10	1 to 10	1 to 10	1 to 10	1 to 10	1 to 10	–	–	–
Cc1cc(-c2cc(NC(=O)c3cc(C4CCC4)cnn3)ccc2C)cc(N2CCOCC2)n1 [Example 42]	0.1 to 0.5	< 0.1	< 0.1	0.1 to 0.5	0.1 to 0.5	0.1 to 0.5	–	–	–
Cc1ccc(NC(=O)c2cc(C3CC3)cnn2)cc1-c1cccc(N2CCOCC2)c1 [Example 46]	0.5 to 1	0.1 to 0.5	< 0.1	0.1 to 0.5	0.1 to 0.5	0.1 to 0.5	–	–	–
Cc1ccc(NC(=O)c2cc(C(F)(F)F)cnn2)cc1-c1cc(N[C@H](C)CO)nc(N2CCOCC2)n1 [Example 28]	< 0.1	0.1 to 0.5	0.1 to 0.5	0.1 to 0.5	< 0.1	< 0.1	–	–	–
Cc1ccc(NC(=O)c2cc(Cl)cnn2)cc1-c1cc(OCCO)nc(N2CCOCC2)c1 [Example 32]	1 to 10	0.5 to 1	0.1 to 0.5	0.1 to 0.5	1 to 10	0.5 to 1	–	–	–
Cc1ccc(NC(=O)c2cnc(C3CC3)nc2)cc1-c1cc(N[C@H](C)CO)nc(N2CCOCC2)c1 [Example 17]	0.5 to 1	0.1 to 0.5	< 0.1	0.5 to 1	0.5 to 1	1 to 10	–	–	–
Cc1ccc(NC(=O)c2cc(C(F)(F)F)cnn2)cc1-c1cc(N2CCOCC2)ncn1 [Example 25]	0.1 to 0.5	0.5 to 1	0.5 to 1	0.1 to 0.5	0.1 to 0.5	1 to 10	–	–	–
Cc1ccc(NC(=O)c2cncc(C(C)C)c2)cc1-c1cc(N[C@H](C)CO)nc(N2CCOCC2)c1 [Example 13]	0.5 to 1	< 0.1	< 0.1	0.1 to 0.5	0.5 to 1	1 to 10	–	–	–
Cc1ccc(NC(=O)c2cc(C(F)(F)F)cnn2)cc1-c1cc(OCCO)nc(N2CCOCC2)n1 [Example 30]	0.1 to 0.5	0.5 to 1	0.1 to 0.5	0.1 to 0.5	0.1 to 0.5	0.1 to 0.5	–	–	–
Cc1ccc(NC(=O)c2cc(C(C)C)cnn2)cc1-c1cc(OCCO)nc(N2CCOCC2)c1 [Example 39]	0.1 to 0.5	< 0.1	< 0.1	< 0.1	0.1 to 0.5	0.1 to 0.5	–	–	–
CCCS(=O)(=O)Nc1ccc(F)c(C(=O)c2c[nH]c3ncc(-c4ccc(Cl)cc4)cc23)c1F [Vemurafenib, vemurafenib, reference compound]	–	–	–	–	–	–	1 to 10	1 to 10	–
CC(C)(C)c1nc(-c2cccc(NS(=O)(=O)c3c(F)cccc3F)c2F)c(-c2ccnc(N)n2)s1 [Dabrafenib, dabrafenib, reference compound]	–	–	–	–	–	–	1 to 10	1 to 10	1 to 10

Second part, led by results:

IC50 [1, 7] [µM]	IC50 [2] [µM]	IC50 [4] [µM]	IC50 [5, 9] [µM]	SMILES	IC50 [3, 8] [µM]	IC50 [6] [µM]	IC50 [1, 10] [µM]	IC50 [5, 11] [µM]	IC50 ([3]; Table 4, mutant KRAS pancreatic cancer cell line, anti-proliferative, read-out: HPAF-II) [µM]
< 0.1	0.1 to 0.5	1 to 10	< 0.1	Cc1ccc(NC(=O)c2cc(C3CC3)cnn2)cc1-c1ccnc(N2C[C@@H]3C[C@H]2CO3)c1 [Example 89]	< 0.1	< 0.1	–	–	–
< 0.1	< 0.1	< 0.1	< 0.1	Cc1ccc(NC(=O)c2cc(C(C)(F)F)cnn2)cc1-c1cc(NCCO)nc(N2CCOCC2)c1 [Example 64]	< 0.1	< 0.1	–	–	–
< 0.1	0.1 to 0.5	0.1 to 0.5	< 0.1	Cc1ccc(NC(=O)c2cc(C(F)(F)F)cnn2)cc1-c1ccnc(N2C[C@@H]3C[C@H]2CO3)c1 [Example 87]	< 0.1	< 0.1	–	–	–
1 to 10	1 to 10	1 to 10	1 to 10	Cc1ccc(NC(=O)c2cc(C(F)(F)F)cnn2)cc1-c1ccnc(N2C[C@@H](C)O[C@@H](C)C2)c1 [Example 84]	1 to 10	–	–	–	–
